Data as given in patent publication US12038445B2, “Liver disease-related biomarkers and methods of use thereof” (Human Metabolomics Institute, Inc., priority 2016, dated 2024).
“Also recorded” adds a separate entry of the source.

What was measured:
[1] = Male mice treated with STZ alone; format: in vivo; details: male mice treated with STZ alone for 20 weeks
THLE-2 = test: Cell proliferation after BA treatment, THLE-2; format: cell-based, human; details: BA treatment 14 days in high glucose (27.5 mM) and oleic acid (0.3 mM)
Experimental: (§1) Normal human hepatic cell lines WRL-68 and THLE-2 were purchased from Sigma. For BA treatment, cells were harvested, rinsed twice in PBS, resuspended in sugar-free DMEM (Life Technologies) supplemented with 10% charcoal-stripped FBS and seeded into 6-well plate at a density of 5×10^4/well. […] After 14 days treatment, normal medium (DMEM-F12 containing 10% FBS) were added into each well to replace the spent media. Cell proliferation and anchorage-independent growth assays were performed in the normal medium. Additionally, western blot assay was performed to analyze the alteration of oncoprotein c-myc expression.

HepG2 = test: Cell proliferation after BA treatment, HepG2; format: cell-based, human; details: BA treatment 14 days, 100 μM
Experimental: (§2) Human cancer cell line, HepG2, was purchased from Sigma and maintained in DMEM-F12 (Life Technologies) supplemented with 10% fetal bovine serum (FBS, Life Technologies). For BA treatment, cells were harvested, rinsed twice with PBS, seeded in sugar-free DMEM (Life Technologies) supplemented with 10% charcoal-stripped FBS and 6 mM glucose. […] The spent media was replaced by fresh normal medium (DMEM-F12 containing 10% FBS) 14 days later. And then cells were used for cell proliferation assay and western blot analysis for the tumor suppressor protein CEBPa.

WRL-68 [2] = test: Cell proliferation after BA treatment, WRL-68; format: cell-based, human; details: BA treatment 14 days in high glucose (27.5 mM) and oleic acid (0.3 mM)
Experimental: as §1

WRL-68 [3] = test: Anchorage-independent growth assay, WRL-68; format: cell-based, human; details: BA treatment under high glucose and high fat condition
Experimental: as §1, with “5×10^4/well. We set the glucose (Glc, Sigma) at 27.5 mM and Oleic acid (OA, Sigma) at 0.3 mM to mimic high glucose and fat conditions in vitro.” for “5×10^4/well.”

c-myc = test: Western blot of oncoprotein c-myc in WRL-68 cells; format: cell-based, human
Experimental: as §1, with “5×10^4/well. We set the glucose (Glc, Sigma) at 27.5 mM and Oleic acid (OA, Sigma) at 0.3 mM to mimic high glucose and fat conditions in vitro.” for “5×10^4/well.”
(§3) Primary antibodies for c-myc (Santa Cruz), CEBPa (Santa Cruz) and Actin (Li-cor) were purchased and used with a diluted concentration as indicated by the manufacturers.

CEBPα = test: Western blot of tumor suppressor protein CEBPα in HepG2 cells; format: cell-based, human
Experimental: as §2, §3

Compound: CN(N=O)C(=O)N[C@H]1C(O)O[C@H](CO)[C@@H](O)[C@@H]1O (mixture of isomers) [STZ, streptozotocin]
- HCC formation [1]: no HCC was observed

Compound: C[C@H](CCC(=O)O)[C@H]1CC[C@H]2[C@@H]3[C@H](O)C[C@@H]4C[C@H](O)CC[C@]4(C)[C@H]3C[C@H](O)[C@]12C [CA, cholic acid]
- THLE-2 proliferation (THLE-2): significantly promoted
- HepG2 cell proliferation (HepG2): significantly promoted
- WRL-68 proliferation (WRL-68 [2]): significantly promoted

Compound: C[C@H](CCC(=O)O)[C@H]1CC[C@H]2[C@@H]3CC[C@@H]4C[C@H](O)CC[C@]4(C)[C@H]3C[C@H](O)[C@]12C [DCA, deoxycholic acid]
- THLE-2 proliferation (THLE-2): significantly promoted
- anchorage-independent growth of WRL-68 compared to those treated with high glucose and high fat (WRL-68 [3]): significantly increased
- anchorage-independent growth of WRL-68 compared with parental cells (WRL-68 [3]): didn't enhance
- HepG2 cell proliferation (HepG2): significantly promoted
- WRL-68 proliferation (WRL-68 [2]): significantly promoted
- expression of oncoprotein c-myc (c-myc): increased

Compound: CC(CCC(=O)NCC(=O)O)C1CCC2C3C(O)CC4CC(O)CCC4(C)C3CCC12C (centres unmarked) [GCDCA, glycochenodeoxycholic acid]
- WRL-68 proliferation (WRL-68 [2]): very little influence

Compound: C[C@H](CCC(=O)NCCS(=O)(=O)O)[C@H]1CC[C@H]2[C@@H]3[C@H](O)C[C@@H]4C[C@H](O)CC[C@]4(C)[C@H]3C[C@H](O)[C@]12C [TCA, taurocholic acid]
- WRL-68 proliferation (WRL-68 [2]): very little influence

Compound: C[C@H](CCC(=O)NCCS(=O)(=O)O)[C@H]1CC[C@H]2[C@@H]3[C@H](O)C[C@@H]4C[C@H](O)CC[C@]4(C)[C@H]3CC[C@]12C [TCDCA, taurochenodeoxycholic acid]
- expression of tumor suppressor gene CEBPα (CEBPα): reduced
- THLE-2 proliferation (THLE-2): significantly promoted
- HepG2 cell proliferation (HepG2): significantly promoted; also recorded: markedly increased
- WRL-68 proliferation (WRL-68 [2]): significantly promoted
- expression of oncoprotein c-myc (c-myc): increased
